The values below are quoted from earlier work in patent publication US6334999B1, “Liposomal aerosols for delivery of chemotherapeutic retinoids to the lungs” (Research Development Foundation, priority 1999, dated 2002).

For the data set the following is noted: mouse, in vivo.

With `CC1=C(/C=C/C(C)=C/C=C/C(C)=C/C(=O)O)C(C)(C)CCC1` [free ATRA, all-trans-retinoic acid], the “dose exerting toxic effects” value is on record as 25-30 mg/kg of body weight.
